These results are taken from patent US4340602A, “Compositions inhibiting estrogen sulfotransferase activity” (Wayne State University, priority 1978, dated 1982).

Structures are written as SMILES. “And” between values parts separate entries of the source, which are not always exact repeats. Equal entries are not always repeated.

The subject of data set [1] is uteri obtained from fertilized pigs. To be noted: average, uteri undergoing normal estrous cycle, regardless of phase; 0.003 µM; cited from earlier work.
In data set [2] the test system is human endometrium. Briefly: Oxidation and sulfurylation of tritiated E2 by human endometrial curettings. The format is in vitro ADME. To be noted: 0.003 µM. The method, then: (§1) Radioisotopes. [6,7-^3 H]E2 and [2,4,6,7-^3 H]E2 were obtained from New England Nuclear Corp., Boston, Mass., and purified on ITLC-SA (Gelman Instrument Co.) with CHCl3 :CH3 OH (97:3) as the developing solvent. Na2^35 SO4 was obtained from New England Nuclear Corp. and used directly from the bottle.
(§2) Human endometria. Endometrial specimens (60-1500 mg) were gathered from the operating room at the time of surgery and placed in 0.9% saline solution on ice. Most patients (22) were young women undergoing tubal ligations for the purpose of sterilization, two patients were having IUD's removed and eight patients (hysterectomies and laparoscopies) had normal endometria upon histological examination. All had had at least one pregnancy, had no endocrine problems, were cycling normally and were not taking any drugs, except for two patients on Librium® and two on Aldoril®. Ages ranged from 23 to 48 years, the average being 31±5 years.
(§3) Metabolism. Amounts varying from 55 to 400 mg of endometrium were incubated in 2.5 ml of modified bicarbonate buffer with 10 μl of [6,7-^3 H]E2 (3×10^-9 M) and 100 μl of Na2^35 SO4 (1×10^-4 M). The remainder of the procedure was the same as described for gilt uterus in Example 2

Assay in data set [3]: as above
The following applies: human, endometrium, Table IV, 2 h, 3×10^-9 M E2. The format is in vitro ADME. Here is the method: as §1, §2, §3

Data set [4] in a line: in vitro. The format is in vitro ADME, porcine. To be noted: pig, minced uterus. An excerpt:
(§4) Animals. Gilts (virgin female pigs) or sows (previously pregnant pigs) in estrus from the pig farm at Michigan State University were mated with boars of established fertility. Following insemination, the females were sacrificed at various times up to 25 days later. Uteri were removed and immediately chilled on ice. Fertilization was confirmed initially by microscopic examination of oviductal washings for fertilized ova (2-5 days following insemination) by histological inspection of the corpus luteum and uterus (8-13 days) and later (17-25 days) by gross inspection of the uterus for the amniotic sac and fetuses.
(§5) Radioisotopes. [6,7-^3 H]E2 (45 Ci/mmol) was obtained from New England Nuclear Corp., Boston, Mass., and purified on ITLC-SA (Gelman Instrument Co.) with CHCl3 :CH3 OH (97:3) as the developing solvent. Na2^35 SO4 (800-1000 mCi/mmol) was obtained from New England Nuclear Corp. and used directly from the bottle.
(§6) Incubation and isolation of [^3 H]E2 and Na2^35 SO4 metabolites. Samples of whole uterus (400 mg), minced in 0.9% saline, were filtered over medium coarse nylon gauze and placed in 2.5 ml of a modified Krebs-Ringer bicarbonate buffer (MgCl2 instead of MgSO4) with glucose (1.5 mg/ml). After the [6,7-^3 H]E2 (3×10^-9 M) and Na2^35 SO4 (1×10^-4 M) were added, the mixture was incubated for 2 hr at 37° C. under […]. The incubate was then boiled for 2 min. to stop the enzymatic reactions. A control was included with each experiment, which contained all of the incubation mixture, and was carried throughout the entire procedure except for the actual incubation.
(§7) The filtered tissue was extracted in 2:1 CHCl3 :CH3 OH (10 ml) for 2 hr, and this extract, reduced almost to dryness, was recombined with the incubation supernatant. This combination in turn was extracted with ethyl acetate (2.5 ml, 3 times) at neutral pH in the presence of (NH4)2 SO4 (0.5 g/ml). The concentrated extract was applied to an alumina column in benzene. After the column was washed with benzene, the unconjugated estrogens were eluted with 100 ml ethanol and the estrogen sulfates with ethanol:water (1:1, 100 ml). The conjugated fraction was further separated from trailing free estrogens by a single development of instant thin layer chromatography (SG; chloroform:acetone:acetic acid, 110:35:6). Marker estrogen sulfates run simultaneously were identified by staining with 50% methylene blue reagent (25 mg % methylene blue in 0.05 N sulfuric acid) in acetone.
(§8) The estrogen sulfates were hydrolyzed with aryl sulfatase^3 (5 mg/10 ml) in 0.1 M sodium acetate buffer (pH 5) for two days at 37° C. (without shaking or mixing) and the estrogen moiety extracted into ether. Both the unconjugated estrogens and those hydrolyzed from sulfate esters were further purified by the procedure of Brooks et al, Biochim. Biophys. Acta, 104:250-260 (1965) and the metabolites identified and quantitated on instant thin layer chromatography (SA; chloroform:methanol, 97:3) in accordance with Pack et al (1974), supra.

For data set [5], the system named is uteri obtained from fertilized pigs. Briefly: in vitro. The format is in vitro ADME, porcine. To be noted: 0.003 µM.
Text: as §4, §5, §6, §7, §8

Turning to `C[C@]12CC[C@@H]3c4ccc(O)cc4CC[C@H]3[C@@H]1CC[C@@H]2O` [1,3,5(10)Estratriene-3,17β-diol], the “added E2 found as free E1, normal estrous cycle” value in data set [1] is 18.7±7.2%. Besides, the “Percent of tritiated E2 sulfurylated, proliferative” value in data set [2] (Table IV, proliferative days 4-7, 55, 118, 329 mg tissue by row, 2 h, 3×10^-9 M E2) amounted to 0%. Also, in data set [2] (Table IV, proliferative days 4-7, 55, 118, 329 mg tissue by row, 2 h, 3×10^-9 M E2, listed as E2, 120 min), the “Percent of tritiated E2 oxidized to estrone, proliferative” value was 47% and 45%. Moreover, the “Percent of tritiated E2 oxidized to estrone (E1 + E1 sulfate), secretory” value in data set [2] (Table IV, secretory day 24, 60, 120, 300 mg tissue by row, 2 h, 3×10^-9 M E2, listed as E2, 120 min) worked out at 82%. The “oxidation of labeled E2 to E1 plus E1 sulfate, days 14 and 15” value in data set [2] (same three endometrial curettings, days 14 and 15, listed as E2, 0.003 µM) is 70% and 75% and 93%. The metabolised at 2 h, 0.003 µM stood at 29% in data set [3] (proliferative days 4-7, 55, 118, 329 mg tissue by row, read-out: Percent of tritiated E2 oxidized to estrone, proliferative); 78% in data set [3] (secretory day 24, 60, 120, 300 mg tissue by row, read-out: Percent of tritiated E2 oxidized to estrone (E1 + E1 sulfate), secretory); 3% in data set [4] (2-hour incubation, day of insemination, read-out: sulfurylation of the 3-hydroxyl group, day of insemination); 16.6% in data set [4] (Table III mean line (SD ± 5.7 on next line), read-out: Percent of added E2 found as Free E1, mean); 12.9% in data set [4] (Table III, 25 (A), anovulatory gilt, 2 h incubation, read-out: Percent of added E2 found as Total E1, anovulatory gilt). In data set [5] (2-hour incubation, 5 to 23 days following fertilization, P<0.05 vs sow), the “sulfurylation in gilt uterus” value amounted to 57.2±8.9%. Besides, in data set [5] (2-hour incubation, 8 to 25 days following fertilization, P<0.05 vs gilt), the “sulfurylation in sow uterus” value was 41.2±6.0%. The “Percent of added E2 found as E1 S, mean” value in data set [5] (Table III mean line, days 5-25 (SD ± 6.4)) was determined as 32.6%. For the same compound, the “Percent of added E2 found as Total E1, mean” value in data set [5] (Table III mean line, days 5-25 (SD ± 10.1)) is 49.8%. Besides, the “Percent of added E2 found as Free E1” value in data set [5] (Table III, 2 h incubation, 3×10^-9 M [3H]E2, by days following fertilization (S sow, G gilt), listed as E2, 120 min) was 16.4%. Moreover, the “conversion of added labeled E2 to E1” value in data set [5] (metestrus, uteri from fertilized pigs) is on record as 13.6%.
